According to patent publication US20250241890A1, “1,4-DIUREAS AND 1,4-DITHIOUREAS AND USES THEREOF” (Purdue Research Foundation, priority 2024, published 2025):

Legend:
α-synuclein (α-syn) [1] = target: T1, α-synuclein (α-syn) (Homo sapiens, UniProt P37840); experiment: Thioflavin T (ThT) fluorescence assay of α-syn fibril formation; assay type: biochemical; conditions: compounds at 100 μM; for maximum thioflavin T (ThT) intensity in percentage: α-syn 6 μM final concentration, average of three replicates; for remaining activity at 100 µM / % ThT intensity (100 μM), maximum ThT intensity in percentage: α-syn 2 μM final concentration, average of three replicates with SEM; for remaining activity at 100 µM: read-out: % ThT intensity (100 μM), maximum ThT intensity in percentage
T1 construct: purchased rPeptide (Watkinsville, GA)
Experimental: Chemical and peptide source. Dimethylsulfoxide (DMSO) and thioflavin-T (ThT) were purchased from Alfa Aesar (Ward Hill, MA). Recombinant α-synuclein (α-syn) was procured from rPeptide (WatKinsville, GA). The recombinant p-tau isoform 1N4R was prepared as published previously (Fortin et al. 2021, Sui et al. 2015, Liu et al. 2020). Concerning the preparation of tau 0N4R, a bacterial expression plasmid consisting of the vector pET30a carrying a cDNA encoding the human Tau 0N4R isoform was a kind gift of Dr. Benjamin Wolozin (Boston University). E. coli stock (Rosetta BL21 E. coli (CamR) containing pET30a [0N4R tau wt] (KanR)) was grown in LB medium supplemented with kanamycin (50 μg/mL) and chloramphenicol (50 μg/mL). Protein over-expression was induced by the addition of 1 mM IPTG for ˜18 hours at 37° C., and cells were pelleted by centrifugation at 6,000 g for 15 minutes at 4° C. The cells were resuspended in lysis buffer (10 mM Hepes, pH 7.4, 50 mM NaCl, 1 mM MgCl2, 1 mM PMSF, 1× PIC, and 0.5 mM DTT) and lysed by sonication at 30 seconds “On” and 1 minute “Off” at ˜30-45% power for ˜3-5 minutes. Lysate was centrifuged at 10,000 rpm for 10 minutes at 4° C., and supernatant was transferred with 7.8 ml (total) of 3M NaCl. The lysate was incubated for 10 minutes in 80° C. water bath, then cooled for 10 minutes in an ice bath. The lysate was centrifuged at 10,000 rpm at 4° C. for 10 minutes, and the supernatant was transferred to a new tube. The supernatant was dialyzed overnight against cation exchange buffer (50 mM MES, […], 1 mM DTT, pH 6.0). The dialysate was loaded onto a HiPrep SP HP column, and proteins were eluted with a linear gradient ranging from 50 mM to 1 M NaCl. General Characterizations. ^1H and ^13C {1H} NMR spectra were recorded using a 500 MHz Bruker instrument working at a frequency of 500 MHz for ^1H and at 126 MHz for ^13C. Chemical shifts are reported in ppm using residual solvent resonances as internal reference (δ 2.50 and δ 39.51 for ^1H and ^13C in DMSO-d6, respectively). ^1H NMR data are reported as follows. b=broad, s=singlet, d=doublet, t=triplet, q=quartet, and m=multiplet. Coupling constants are given in hertz. The purity of all compounds and synthetic intermediates was judged to be 95% or better based on ^1H NMR. IR measurements were performed in a Nicolet FTIR as thin films in the Purdue Drug Discovery facility. High-resolution mass spectrometry analyses were conducted at the MSU Mass Spectrometry facility. Thioflavin fluorescence assays. […] The recombinant α-syn obtained from rPeptide has been validated with proper quality control to confirm the monomeric state of the protein. Kinetics of fibril formation have been performed using ThT as published previously.^6, 12, 13, 24 The fluorescence emission experiments were performed with the excitation and emission wavelengths set at 440 and 485 nm, respectively, with a Synergy HT multi-mode microplate reader (BioTek, Winooski, VT). Samples were measured in three replicates. Experiments were repeated three times using different α-syn stock solutions. For each time point, arbitrary units of fluorescence were calculated from the mean values normalized against the maximum value. The percentage of fluorescence intensity at the plateau phase in Table 1 was expressed as mean #SEM. Concerning the dose response curve depicted in FIG. 2, the data were plotted using GraphPad Prism. Photo-induced Cross-linking of Unmodified Proteins (PICUP) Assay. To induce oligomerization by cross-linking, α-syn (from Rpeptide, LLC) was diluted in 10 mM phosphate buffer (pH 7.4) to reach a final concentration of 50 μM. Different compounds were added to the protein solution at a final concentration of 50 μM, resulting in a molar ratio of 1:1. PICUP assays were performed with the following controls: samples without light exposition, without Ru(bpy) or ammonium persulfate, and without compound (i.e., 0.125% DMSO). […]

α-synuclein (α-syn) [2] = target: T1, α-synuclein (α-syn); experiment: PICUP assay of α-syn oligomer formation; assay type: biochemical; conditions: α-syn 60 μM, compound 50 μM (~molar ratio 1:1)
Experimental: Chemical and peptide source. Dimethylsulfoxide (DMSO) and thioflavin-T (ThT) were purchased from Alfa Aesar (Ward Hill, MA). Recombinant α-synuclein (α-syn) was procured from rPeptide (WatKinsville, GA). The recombinant p-tau isoform 1N4R was prepared as published previously (Fortin et al. 2021, Sui et al. 2015, Liu et al. 2020). Concerning the preparation of tau 0N4R, a bacterial expression plasmid consisting of the vector pET30a carrying a cDNA encoding the human Tau 0N4R isoform was a kind gift of Dr. Benjamin Wolozin (Boston University). E. coli stock (Rosetta BL21 E. coli (CamR) containing pET30a [0N4R tau wt] (KanR)) was grown in LB medium supplemented with kanamycin (50 μg/mL) and chloramphenicol (50 μg/mL). Protein over-expression was induced by the addition of 1 mM IPTG for ˜18 hours at 37° C., and cells were pelleted by centrifugation at 6,000 g for 15 minutes at 4° C. The cells were resuspended in lysis buffer (10 mM Hepes, pH 7.4, 50 mM NaCl, 1 mM MgCl2, 1 mM PMSF, 1× PIC, and 0.5 mM DTT) and lysed by sonication at 30 seconds “On” and 1 minute “Off” at ˜30-45% power for ˜3-5 minutes. Lysate was centrifuged at 10,000 rpm for 10 minutes at 4° C., and supernatant was transferred with 7.8 ml (total) of 3M NaCl. The lysate was incubated for 10 minutes in 80° C. water bath, then cooled for 10 minutes in an ice bath. The lysate was centrifuged at 10,000 rpm at 4° C. for 10 minutes, and the supernatant was transferred to a new tube. The supernatant was dialyzed overnight against cation exchange buffer (50 mM MES, […], 1 mM DTT, pH 6.0). The dialysate was loaded onto a HiPrep SP HP column, and proteins were eluted with a linear gradient ranging from 50 mM to 1 M NaCl. General Characterizations. ^1H and ^13C {1H} NMR spectra were recorded using a 500 MHz Bruker instrument working at a frequency of 500 MHz for ^1H and at 126 MHz for ^13C. Chemical shifts are reported in ppm using residual solvent resonances as internal reference (δ 2.50 and δ 39.51 for ^1H and ^13C in DMSO-d6, respectively). ^1H NMR data are reported as follows. b=broad, s=singlet, d=doublet, t=triplet, q=quartet, and m=multiplet. Coupling constants are given in hertz. The purity of all compounds and synthetic intermediates was judged to be 95% or better based on ^1H NMR. IR measurements were performed in a Nicolet FTIR as thin films in the Purdue Drug Discovery facility. High-resolution mass spectrometry analyses were conducted at the MSU Mass Spectrometry facility. Thioflavin fluorescence assays. Thioflavin fluorescence assays were used to monitor fibril formation of commercial recombinant α-syn at a final concentration of 2 μM and treated with control DMSO and different compounds. The recombinant α-syn obtained from rPeptide has been validated with proper quality control to confirm the monomeric state of the protein. Kinetics of fibril formation have been performed using ThT as published previously.^6, 12, 13, 24 The fluorescence emission experiments were performed with the excitation and emission wavelengths set at 440 and 485 nm, respectively, with a Synergy HT multi-mode microplate reader (BioTek, Winooski, VT). Samples were measured in three replicates. Experiments were repeated three times using different α-syn stock solutions. For each time point, arbitrary units of fluorescence were calculated from the mean values normalized against the maximum value. The percentage of fluorescence intensity at the plateau phase in Table 1 was expressed as mean #SEM. Concerning the dose response curve depicted in FIG. 2, the data were plotted using GraphPad Prism. Photo-induced Cross-linking of Unmodified Proteins (PICUP) Assay. […] Different compounds were added to the protein solution at a final concentration of 50 μM, resulting in a molar ratio of 1:1. PICUP assays were performed with the following controls: samples without light exposition, without Ru(bpy) or ammonium persulfate, and without compound (i.e., 0.125% DMSO). […]

`O=C(Nc1cccc(NC(=O)Nc2ccc3cc[nH]c3c2)c1)Nc1ccc2cc[nH]c2c1` [Compound 14, 3-(1H-indol-6-yl)-1-(3-{[(1H-indol-6-yl)carbamoyl]amino}phenyl)urea] was tested, and the “maximum thioflavin T (ThT) intensity in percentage” value (α-synuclein (α-syn) [1]) was “Compound 14 12.4 ± 1.8%”.
For `Nc1ccc2cc[nH]c2c1` [6-aminoindole, reference compound], the “effect on α-syn oligomer formation (high molecular weight bands) by PICUP” value (from here on “effect on α-syn oligomer formation”) (α-synuclein (α-syn) [2]) was “abrogated the formation of high molecular weight bands”.
Work on `O=C(Nc1ccccc1)Nc1ccc(NC(=O)Nc2ccccc2)cc1` [Compound 9, 1-phenyl-3-{4-[(phenylcarbamoyl)amino]phenyl}urea] yielded a remaining activity at 100 µM (α-synuclein (α-syn) [1]) of 93.5%.
With `Cc1c(NC(=O)Nc2cccc3[nH]ccc23)cccc1NC(=O)Nc1cccc2[nH]ccc12` [Compound 16, 3-(1H-indol-4-yl)-1-(3-{[(1H-indol-4-yl)carbamoyl]amino}-2-methylphenyl)urea] the “maximum thioflavin T (ThT) intensity in percentage” value (α-synuclein (α-syn) [1]) was “Compound 16 23.4 ± 0.2%”.
With `Nc1cccc2[nH]ccc12` [4-aminoindole, reference compound] the “effect on α-syn oligomer formation” value (α-synuclein (α-syn) [2]) was “abrogated the formation of high molecular weight bands”.
`S=C(Nc1ccccc1)Nc1ccc(NC(=S)Nc2ccccc2)cc1` [Compound 10, 1-phenyl-3-{4-[(phenylcarbamothioyl)amino]phenyl}thiourea] gave a remaining activity at 100 µM (α-synuclein (α-syn) [1]) of 94%.
In the case of `O=C(Nc1cccc(NC(=O)Nc2ccc3[nH]ccc3c2)c1)Nc1ccc2[nH]ccc2c1` [Compound 13, 3-(1H-indol-5-yl)-1-(3-{[(1H-indol-5-yl)carbamoyl]amino}phenyl)urea], the “maximum thioflavin T (ThT) intensity in percentage” value (α-synuclein (α-syn) [1]) is reported as “Compound 13 27.7 ± 2.9%”.
With `O=C(Nc1cccc(NC(=O)Nc2cccc3[nH]ccc23)c1)Nc1cccc2[nH]ccc12` [Compound 15, 3-(1H-indol-4-yl)-1-(3-{[(1H-indol-4-yl)carbamoyl]amino}phenyl)urea] the “maximum thioflavin T (ThT) intensity in percentage” value (α-synuclein (α-syn) [1]) was “Compound 15 28.1 ± 2.1%”.
In the case of `O=C(Nc1cccc2[nH]ccc12)N[C@H]1CC[C@H](NC(=O)Nc2cccc3[nH]ccc23)CC1` [Compound 21, 1,1′-((1R,4R)-cyclohexane-1,4-diyl)bis(3-(1H-indol-4-yl)urea)], the remaining activity at 100 µM (α-synuclein (α-syn) [1]) is reported as 91.6%.
`O=C(Nc1cccc(NC(=O)Nc2cccc3[nH]ccc23)c1)Nc1cccc2[nH]ccc12` [Compound 12, 3-(1H-indol-4-yl)-1-(3-{[(1H-indol-4-yl)carbamoyl]amino}phenyl)urea] was tested, and the “maximum thioflavin T (ThT) intensity in percentage” value (α-synuclein (α-syn) [1]) was “Compound 12 8.8 ± 0.2%”.
In the case of `Cc1c(NC(=O)Nc2ccc3cc[nH]c3c2)cccc1NC(=O)Nc1ccc2cc[nH]c2c1` [Compound 18, 3-(1H-indol-6-yl)-1-(3-{[(1H-indol-6-yl)carbamoyl]amino}-2-methylphenyl)urea], the “maximum thioflavin T (ThT) intensity in percentage” value (α-synuclein (α-syn) [1]) is reported as “Compound 18 49.7 ± 5.0%”.
With `Cc1c(NC(=O)Nc2ccc3[nH]ccc3c2)cccc1NC(=O)Nc1ccc2[nH]ccc2c1` [Compound 17, 3-(1H-indol-5-yl)-1-(3-{[(1H-indol-5-yl)carbamoyl]amino}-2-methylphenyl)urea] the “maximum thioflavin T (ThT) intensity in percentage” value (α-synuclein (α-syn) [1]) was “Compound 17 116.4 ± 8.8%”.
With “1,1′-(1,4-phenylene)bis(3-(pyridin-4-yl)urea) [Compound 19]” the “% ThT intensity (100 μM), maximum ThT intensity in percentage” value (α-synuclein (α-syn) [1]) was 19 41.6 ± 3.6%.
In the case of “1,1′-(1,4-phenylene)bis(3-cyclohexylthiourea) [Compound 20]”, the “% ThT intensity (100 μM), maximum ThT intensity in percentage” value (α-synuclein (α-syn) [1]) is reported as 20 85% ± <15.
Work on `Cc1c(NC(=O)Nc2ccc(N3CCOCC3)cc2)cccc1NC(=O)Nc1ccc(N2CCOCC2)cc1` [Compound 22, 1,1′-(2-methyl-1,3-phenylene)bis(3-(4-morpholinophenyl)urea)] yielded a remaining activity at 100 µM (α-synuclein (α-syn) [1]) of 93.5%.
`Nc1ccc2[nH]ccc2c1` [5-aminoindole, reference compound] was tested, and the “effect on α-syn oligomer formation” value (α-synuclein (α-syn) [2]) was “abrogated the formation of high molecular weight bands”.
With `O=C(Nc1ccccc1)Nc1cccc(NC(=O)Nc2ccccc2)c1` [Compound 11, 3-phenyl-1-{3-[(phenylcarbamoyl)amino]phenyl}urea] the “maximum thioflavin T (ThT) intensity in percentage” value (α-synuclein (α-syn) [1]) was “Compound 11 108.6 ± 4.7%”.
